System: Akkermansia muciniphila BCRC 81048 strain
Experiment: Prebiotic test for A. muciniphila (single candidate prebiotics, plate count)
Type: cell-based
Conditions: 1% (w/w) candidate prebiotic in BHI medium, 48 h anaerobic incubation at 37° C.; control group = 100%
Excerpt: The Akkermansia muciniphila used in the Examples described herein is the Akkermansia muciniphila BCRC 81048 strain purchased from BCRC at the Food Industry Research and Development Institute (also deposited under ATCC BAA-835). For subsequent use in the prebiotic test, the A. muciniphila strain, after thawed and activation, was inoculated at 3% and pre-cultured in BHI medium (15 g BD Difco Brain Heart Infusion broth (Thermo Fischer Scientific) dissolved in 1 L deionized water at a pH value of about 7.0) at 37° C. under an anaerobic condition (10% carbon dioxide, 10% hydrogen, and 80% nitrogen) for 48 hours.
In order to identify the nutrients beneficial to the growth of A. muciniphila, pre-cultured A. muciniphila was inoculated at 3% in BHI medium containing 1% (w/w) of the candidate prebiotics and incubated at 37° C. under anaerobic conditions for 48 hours. The bacterial culture was then spread on BHI agar plates and incubated for 72 hours for bacterial counting. The candidate prebiotic was selected from xylooligosaccharides, isomaltooligosaccharides, lactitol, inulin, fructooligosaccharides, and a banana ferment. For comparison, A. muciniphila was alternatively incubated in BHI medium without candidate prebiotics (control group).

Molecule	relative bacterial count of A. muciniphila
OC[C@@H](O)[C@@H](O[C@@H]1O[C@H](CO)[C@H](O)[C@H](O)[C@H]1O)[C@H](O)[C@@H](O)CO [lactitol]	~258%
inulin	about 110%
